Molecular target: M. tuberculosis cytochrome bd-I (Mycobacterium tuberculosis, UniProt L7N662)
Format: biochemical

Sequence of M. tuberculosis cytochrome bd-I (L7N662 1-485): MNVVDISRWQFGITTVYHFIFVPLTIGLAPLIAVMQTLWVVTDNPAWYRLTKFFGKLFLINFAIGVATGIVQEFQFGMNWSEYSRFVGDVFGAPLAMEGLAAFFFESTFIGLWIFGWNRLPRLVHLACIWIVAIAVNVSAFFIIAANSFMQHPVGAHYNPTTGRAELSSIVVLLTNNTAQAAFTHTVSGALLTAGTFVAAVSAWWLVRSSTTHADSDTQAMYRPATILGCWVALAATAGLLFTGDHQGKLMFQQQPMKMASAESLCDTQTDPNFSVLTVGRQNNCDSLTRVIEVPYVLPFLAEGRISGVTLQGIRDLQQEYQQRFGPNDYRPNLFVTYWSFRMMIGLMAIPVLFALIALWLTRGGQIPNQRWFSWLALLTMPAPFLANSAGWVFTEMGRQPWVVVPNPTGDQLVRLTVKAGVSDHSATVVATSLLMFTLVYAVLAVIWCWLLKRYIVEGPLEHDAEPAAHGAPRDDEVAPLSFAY

Molecule | inhibition @ 1 uM (% of cntls) | IC50 (additional compounds, […])
COc1ccc2[nH]c(-c3ccc(Cc4ccc(OC(F)(F)F)cc4)cc3)c(C)c(=O)c2c1 [SCR-05-03, 6-Methoxy-3-methyl-2-(4-(4-(trifluoromethoxy)benzyl)phenyl)quinolin-4(1H)-one] | 60.9 % of cntls | –
Cc1c(-c2ccc(Cc3cccc(OCCN4CCOCC4)c3)cc2)[nH]c2ccccc2c1=O [PG201, 3-Methyl-2-(4-(3-(2-morpholinoethoxy)benzyl)phenyl)quinolin-4(1H)-one] | 68.7 % of cntls | –
O=c1cc(-c2ccc(Cc3ccc(OC(F)(F)F)cc3)cc2)[nH]c2cc(O)c(F)cc12 [CK-3-68, 6-Fluoro-7-hydroxy-2-(4-(4-(trifluoromethoxy)benzyl)phenyl)quinolin-4(1H)-one] | 71.7 % of cntls | –
Cc1c(-c2ccc(Cc3ccc(OC(F)(F)F)cc3)cc2)[nH]c2cc(O)ccc2c1=O [SCR-45-01D, 7-Hydroxy-3-methyl-2-(4-(4-(trifluoromethoxy)benzyl)phenyl)quinolin-4(1H)-one] | 81.5 % of cntls | –
COc1ccc(Cc2ccc(-c3[nH]c4ccccc4c(=O)c3C)cc2)cc1 [CK-2-96, 2-(4-(4-Methoxybenzyl)phenyI)-3-methylquinolin-4(1H)-one] | 85.7 % of cntls | –
Cc1c(-c2ccc(Cc3ccc(OC(F)(F)F)cc3)cc2)[nH]c2c(O)cccc2c1=O [SCR-06-03D, 8-Hydroxy-3-methyl-2-(4-(4-(trifluoromethoxy)benzyl)phenyl)quinolin-4(1H)-one] | 73.1 % of cntls | –
O=c1c(-c2ccc(Oc3ccc(OC(F)(F)F)cc3)cc2)c(CO)[nH]c2ccccc12 [PG208, 2-(Hydroxymethyl)-3-(4-(4-(trifluoromethoxy)phenoxy)phenyl)quinolin-4(1H)-one] | 66.7 % of cntls | –
CCOC(=O)c1c(-c2ccc(-c3ccc(OC(F)(F)F)cc3)cc2)[nH]c2ccccc2c1=O [WDH-1V-10, Ethyl 4-oxo-2-(4′-(trifluoromethoxy)-[1,1′-biphenyl]-4-yl)-1,4-dihydroquinoline-3-carboxylate] | 79.4 % of cntls | –
Cc1c(-c2ccc(-c3ccccc3F)cc2)[nH]c2ccccc2c1=O [SL-3-3, 2-(2′-Fluoro-[1,1′-biphenyl]-4-yl)-3-methylquinolin-4(1H)-one] | 62.2 % of cntls | –
Cc1c(-c2ccc(Oc3ccc(OC(F)(F)F)cc3)nc2)[nH]c2ccccc2c1=O [CK-3-22, 3-Methyl-2-(6-(4-(trifluoromethoxy)phenoxy)pyridin-3-yl)quinolin-4(1H)-one] | 62.8 % of cntls | –
Cc1c(-c2ccc(-c3ccccc3C(F)(F)F)cc2)[nH]c2ccccc2c1=O [SL-2-36, 3-Methyl-2-(2′-(trifluoromethyl)-[1,1′-biphenyl]-4-yl)quinolin-4(1H)-one] | 90.5 % of cntls | –
CCOC(=O)c1c(-c2ccc(-c3ccc(Cl)cc3)cc2)[nH]c2ccccc2c1=O [WDH-1V-9, Ethyl 2-(4′-chloro-[1,1′-biphenyl]-4-yl)-4-oxo-1,4-dihydroquinoline-3-carboxylate] | 87.5 % of cntls | –
Cc1c(-c2cccc(Cc3ccc(OC(F)(F)F)cc3)c2)[nH]c2ccccc2c1=O [CK-2-58, 3-Methyl-2-(3-(4-(trifluoromethoxy)benzyl)phenyl)quinolin-4(1H)-one] | 82.3 % of cntls | –
Cc1c(-c2ccc(OC3CCC(F)(F)CC3)cc2)[nH]c2ccccc2c1=O [PG105, 2-(4-((4,4-Difluorocyclohexyl)oxy)phenyI)-3-methylquinolin-4(1H)-one] | 71.5 % of cntls | –
Cc1c(-c2ccc(Oc3cccc(OCCN4CCOCC4)c3)cc2)[nH]c2ccccc2c1=O [CK-4-15, 3-Methyl-2-(4-(3-(2-morpholinoethoxy)phenoxy)phenyl)quinolin-4(1H)-one] | 66.6 % of cntls | –
3-Methyl-2-(1-(4-(trifluoromethoxy)phenethyl)-1H-pyrazol-4-yl)quinolin-4(1H)-one [WDH-2R-4] | 56.2 % of cntls | 380 nM

From patent US10799494B2, “Combination of respiratory electron transport chain inhibitors with a cytochrome bd inhibitor” (priority 2015, dated 2020)
